Measurements published in patent US12344610B2, “APOL1 inhibitors and methods of use” (Maze Therapeutics, Inc., priority 2022, dated 2025).

What was measured:
Assay type in all cases: cell-based
[1] = tested on: Trypanosoma brucei Lister 427 VSG221 with APOL1 G1 recombinant protein; assay: APOL1 G1 trypanosome cell rescue assay (Example B5); details: Trypanosoma brucei, 20 h, read-out: APOL1 G1 Trypanosome Rescue EC50, Trypanosoma brucei Lister 427 VSG221 with APOL1 G1 recombinant protein, 20 hours, CellTiter-Glo; geometric mean of at least 2 assay runs; † = single assay run
Summary of the method: (§1)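 Recombinant mature APOL1 (residues 28-398, His-tag removed, E. coli-expressed, refolded from inclusion bodies, DDM buffer) at […] added with 250 trypanosomes/well in modified HMI-9 media. Duplicate 11-point 2-fold compound series, 0.4% DMSO; 20 h at 37° C, 5% CO2, then CellTiter-Glo luminescence for viability.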

[2] = tested on: HEK293 clonal cell line overexpressing APOL1 G1; assay: APOL1 G1 HEK293 cell rescue assay (Example B3); details: Homo sapiens, HEK293, HEK293 clonal line overexpressing APOL1 G1; geometric mean of at least 2 runs; † = single run; ¥ = concentration at 50% rescue estimated (no sigmoidal curve)
Summary of the method: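 HEK293 clonal line overexpressing APOL1 G1; EC50 is half-maximal reversal of APOL1-induced cell death. Values are the geometric mean of ≥2 runs on separate days, each run the average of duplicate wells. Where no sigmoidal curve could be fitted, the concentration giving 50% rescue was estimated.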

[3] = tested on: Trypanosoma brucei Lister 427 VSG221 with APOL1 G0 recombinant protein; assay: APOL1 G0 trypanosome cell rescue assay (Example B5); details: Trypanosoma brucei, 20 h, read-out: APOL1 G0 Trypanosome Rescue EC50, Trypanosoma brucei Lister 427 VSG221 with APOL1 G0 recombinant protein, 20 hours, CellTiter-Glo; geometric mean of at least 2 assay runs; † = single assay run
Summary of the method: as §1

| SMILES | EC50 [1] [nM] | EC50 [2] [nM] | EC50 [3] [nM] |
| --- | --- | --- | --- |
| C[C@]1(O)C[C@@H](N2C(=O)Cc3cc(OCCN4CCC5(CC4)C(=O)Nc4ccc(Cl)cc45)cnc32)C1 [Compound 345, 5-chloro-1′-[2-({2-oxo-1-[(cis)-3-hydroxy-3-methylcyclobutyl]-1H,2H,3H-pyrrolo[2,3-b]pyridin-5-yl}oxy)ethyl]-1,2-dihydrospiro[indole-3,4′-piperidin]-2-one] | 242 | 79 | 161 |
| C[C@]1(O)C[C@@H](N2C(=O)Cc3cc(OCCN4CCC5(CC4)C(=O)Nc4ccc(C(F)F)cc45)cnc32)C1 [Compound 346, 5-(difluoromethyl)-1′-[2-({2-oxo-1-[(cis)-3-hydroxy-3-methylcyclobutyl]-1H,2H,3H-pyrrolo[2,3-b]pyridin-5-yl]oxy)ethyl]-1,2-dihydrospiro[indole-3,4′-piperidin]-2-one] | 116 | 83.7 | 83.6 |
| C[C@]1(O)C[C@@H](n2ccc3cc(OCCN4CCC5(CC4)C(=O)Nc4ccc(Cl)cc45)cnc32)C1 [Compound 349, 5-chloro-1′-[2-({1-[(cis)-3-hydroxy-3-methylcyclobutyl]-1H-pyrrolo[2,3-b]pyridin-5-yl}oxy)ethyl]-1,2-dihydrospiro[indole-3,4′-piperidin]-2-one] | 89.8 | 73.5 | 64.6 |
| C[C@]1(O)C[C@@H](n2cnc3cc(OCCN4CCC5(CC4)C(=O)Nc4ccc(Cl)cc45)cc(C(F)(F)F)c32)C1 [Compound 352, 5-chloro-1′-[2-({1-[(cis)-3-hydroxy-3-methylcyclobutyl]-7-(trifluoromethyl)-1H-1,3-benzodiazol-5-yl}oxy)ethyl]-1,2-dihydrospiro[indole-3,4′-piperidin]-2-one] | 18.8 | 9.95 | 18.7 |
| C[C@]1(O)C[C@@H](N2C(=O)NCc3cc(OCCN4CCC5(CC4)C(=O)Nc4ccc(Cl)cc45)cnc32)C1 [Compound 356, 5-chloro-1′-[2-({2-oxo-1-[(cis)-3-hydroxy-3-methylcyclobutyl]-1H,2H,3H,4H-pyrido[2,3-d]pyrimidin-6-yl}oxy)ethyl]-1,2-dihydrospiro[indole-3,4′-piperidin]-2-one] | 113 | 162 | 101 |
| CC(C)(O)c1ncc(OCCN2CCC3(CC2)C(=O)Nc2ccc(Cl)cc23)cc1C(F)(F)F [Compound 371, 5-chloro-1′-(2-{[6-(2-hydroxypropan-2-yl)-5-(trifluoromethyl)pyridin-3-yl]oxy}ethyl)-1,2-dihydrospiro[indole-3,4′-piperidin]-2-one] | 21.9 | 28.8 | 18.8 |
| CCC1(O)CN(c2ncc(OCCN3CCC4(CC3)C(=O)Nc3ccc(Cl)cc34)cn2)C1 [Compound 397, 5-chloro-1′-(2-{[2-(3-ethyl-3-hydroxyazetidin-1-yl)pyrinlidin-5-yl]oxy}ethyl)-1,2-dihydrospiro[indole-3,4′-piperidin]-2-one] | 269 | 105 | 226 |
| C[C@]1(O)C[C@@H](n2ccc3cc(OCCN4CCC5(CC4)C(=O)Nc4ccc(C#N)cc45)cnc32)C1 [Compound 410, 2-oxo-1′-[2-({1-[(cis)-3-hydroxy-3-methylcyclobutyl]-1H-pyrrolo[2,3-b]pyridin-5-yl}oxy)ethyl]-1,2-dihydrospiro[indole-3,4′-piperidine]-5-carbonitrile] | 269 | 93.3 | 206 |
| [2H]C([2H])(Oc1cnc2c(c1)CCC(=O)N2[C@H]1C[C@@](C)(O)C1)C([2H])([2H])N1CCC2(CC1)C(=O)Nc1ccc(Cl)cc12 [Compound 426, 5-chloro-1′-[2-({7-oxo-8-[(cis)-3-hydroxy-3-methylcyclobutyl]-5,6,7,8-tetrahydro-1,8-naphthyridin-3-yl}oxy)(1,1,2,2-^2H4)ethyl]-1,2-dihydrospiro[indole-3,4′-piperidin]-2-one] | 88.8 | 80.3 | 71 |
| C[C@]1(O)C[C@@H](n2cc3cc(OCCN4CCC5(CC4)C(=O)Nc4ccc(Cl)cc45)cc(C(F)(F)F)c3n2)C1 [Compound 427, 5-chloro-1′-[2-({2-[(cis)-3-hydroxy-3-methylcyclobutyl]-7-(trifluoromethyl)-2H-indazol-5-yl}oxy)ethyl]-1,2-dihydrospiro[indole-3,4′-piperidin]-2-one] | 18.1 | 35.8 | 15.6 |
| C[C@]1(O)C[C@@H](n2cc3cc(OCCN4CCC5(CC4)C(=O)Nc4ccc(C#N)cc45)cc(C(F)(F)F)c3n2)C1 [Compound 428, 2-oxo-1′-[2-({2-[(cis)-3-hydroxy-3-methylcyclobutyl]-7-(trifluoromethyl)-2H-indazol-5-yl}oxy)ethyl]-1,2-dihydrospiro[indole-3,4′-piperidine]-5-carbonitrile] | 71.9 | 89.6 | 63.3 |
| C[C@]1(O)C[C@@H](n2nnc3cc(OCCN4CCC5(CC4)C(=O)Nc4ccc(C#N)cc45)cc(C(F)(F)F)c32)C1 [Compound 435, 2-oxo-1′-[2-({1-[(cis)-3-hydroxy-3-methylcyclobutyl]-7-(trifluoromethyl)-1H-1,2,3-benzotriazol-5-yl}oxy)ethyl]-1,2-dihydrospiro[indole-3,4′-piperidine]-5-carbonitrile] | 27.2 | 38.4 | 27.1 |
| C[C@]1(O)C[C@@H](n2cnc3cc(OCCN4CCC5(CC4)C(=O)Nc4ccc(Cl)cc45)cc(C#N)c32)C1 [Compound 439, 5-(2-{5-chloro-2-oxo-1,2-dihydrospiro[indole-3,4′-piperidin]-1′-yl}ethoxy)-1-[(cis)-3-hydroxy-3-methylcyclobutyl]-1H-1,3-benzodiazole-7-carbonitrile] | 51 | 45.5 | 50.5 |
| C[C@]1(O)C[C@@H](n2nnc3cc(OCCN4CCC5(CC4)C(=O)Nc4ccc(Cl)cc45)cnc32)C1 [Compound 440, 5-chloro-1′-[2-({3-[(cis)-3-hydroxy-3-methylcyclobutyl]-3H-[1,2,3]triazolo[4,5-b]pyridin-6-yl}oxy)ethyl]-1,2-dihydrospiro[indole-3,4′-piperidin]-2-one] | 205 | 139 | 160 |
| CC1(O)CC2(CN(c3ncc(OCCN4CCC5(CC4)C(=O)Nc4ccc(Cl)cc45)cn3)C2)C1 [Compound 459, 5-chloro-1′-{2-[(2-{6-hydroxy-6-methyl-2-azaspiro[3.3]heptan-2-yl}pyrimidin-5-yl)oxy]ethyl}-1,2-dihydrospiro[indole-3,4′-piperidin]-2-one] | 133 | 95.5 | 101 |
| C[C@]1(O)C[C@@H](N2C(=O)C3(CC3)c3cc(OCCN4CCC5(CC4)C(=O)Nc4ccc(Cl)cc45)cnc32)C1 [Compound 460, 5-chloro-1′-(2-{2′-oxo-1′-[(cis)-3-hydroxy-3-methylcyclobutyl]-1′,2′-dihydrospiro[cyclopropane-1,3′-pyrrolo[2,3-b]pyridin]-5′-yloxy}ethyl)-1,2-dihydrospiro[indole-3,4′-piperidin]-2-one] | 118 | 97.7 | 104 |
| [2H]C([2H])([2H])[C@]1(O)C[C@@H](N2C(=O)CCc3cc(OCCN4CCC5(CC4)C(=O)Nc4ccc(Cl)cc45)cnc32)C1 [Compound 461, 5-chloro-1′-[2-({7-oxo-8-[(cis)-3-hydroxy-3-(^2H3)methylcyclobutyl]-5,6,7,8-tetrahydro-1,8-naphthyridin-3-yl}oxy)ethyl]-1,2-dihydrospiro[indole-3,4′-piperidin]-2-one] | 75.5 | 80.9 | 69.2 |
| C[C@]1(O)C[C@@H](n2c(=O)[nH]c3cc(OCCN4CCC5(CC4)C(=O)Nc4ccc(Cl)cc45)cc(C(F)(F)F)c32)C1 [Compound 468, 5-chloro-1′-[2-({2-oxo-1-[(cis)-3-hydroxy-3-methylcyclobutyl]-7-(trifluoromethyl)-2,3-dihydro-1H-1,3-benzodiazol-5-yl}oxy)ethyl]-1,2-dihydrospiro[indole-3,4′-piperidin]-2-one] | 5.59 | 14.5 | 3.72 |
| C[C@]1(O)C[C@@H](n2c(=O)[nH]c3cc(OCCN4CCC5(CC4)C(=O)Nc4ccc(C#N)cc45)cc(C(F)(F)F)c32)C1 [Compound 470, 2-oxo-1′-[2-({2-oxo-1-[(cis)-3-hydroxy-3-methylcyclobutyl]-7-(trifluoromethyl)-2,3-dihydro-1H-1,3-benzodiazol-5-yl}oxy)ethyl]-1,2-dihydrospiro[indole-3,4′-piperidine]-5-carbonitrile] | 12.4 | 47.6 | 8.82 |
